Results as given in patent US7727989B2, “4-benzimidazol-2-yl-pyridazine-3-one-derivatives, production and use thereof in medicaments” (Sanofi-Aventis Deutschland GmbH, priority 2004, dated 2010).
Where two headings read alike, the source gives them in different places.

Assays:
human recombinant GSK-3β = human recombinant GSK-3β (Homo sapiens, UniProt P49841); test: GSK-3β activity, AlphaScreen, primed glycogen synthase substrate peptide; assay type: biochemical
Procedure: Functional measurements to ascertain IC50 values:
GSK-3β activity is measured using human recombinant GSK-3β and a primed (pre-phosphorylated) substrate peptide (derived from glycogen synthase and containing the phosphorylation sites 3a, b, and c) on the basis of the AlphaScreen technology in 384-well plate format (small volume plate, white, Greiner). […] After adding […] Donor beads (20 μg/ml) and […] antibody (anti-phosphoglycogen synthase 1:2000)-coated Acceptor beads (40 μg/ml) in AlphaScreen detection buffer (20 mM Hepes, pH 7.4, 10 mM MgCl, 40 mM EDTA, 1 mM DTT, 0.1 mg/ml BSA), plates are incubated at room temperature (in the dark) overnight and then placed in a reader (Alphaquest or Fusion) to measure final fluorescence. IC50 values are calculated from the fitted curve corrected for bank values (absence of GSK-3β) and performed in triplicate.

[1] = human recombinant GSK-3β 0.18 nM, biot. phospho-glycogen synthase peptide 34 nM, 10 μM ATP, 60 min room temperature, triplicate, read-out: IC50

Sequence of human recombinant GSK-3β (P49841 whole entry): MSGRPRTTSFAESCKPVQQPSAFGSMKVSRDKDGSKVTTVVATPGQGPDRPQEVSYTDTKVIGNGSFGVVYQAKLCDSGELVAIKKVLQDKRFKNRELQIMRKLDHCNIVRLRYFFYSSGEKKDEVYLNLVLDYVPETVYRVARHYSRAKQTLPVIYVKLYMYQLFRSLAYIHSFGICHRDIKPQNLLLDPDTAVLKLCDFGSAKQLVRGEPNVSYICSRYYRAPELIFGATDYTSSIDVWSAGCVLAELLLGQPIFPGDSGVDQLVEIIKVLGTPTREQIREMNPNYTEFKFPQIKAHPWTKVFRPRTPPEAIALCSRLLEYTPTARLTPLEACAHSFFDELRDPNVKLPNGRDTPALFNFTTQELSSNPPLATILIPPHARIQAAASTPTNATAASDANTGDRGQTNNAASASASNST

Row | IC50 (human recombinant GSK-3β; [1]) [nM] | melting point | IC50 (human recombinant GSK-3β) [nM] | SMILES
1 | 32 |  |  | O=c1[nH]nc(-c2ccncc2)cc1-c1nc2ccncc2[nH]1 [Example 38, 4-(3H-imidazol[4,5-c]pyridin-2-yl)-6-pyridin-4-yl-2H-pyridazin-3-one]
2 | 42 |  |  | CN1CCN(Cc2ccc3nc(-c4cc(-c5ccccc5)n[nH]c4=O)[nH]c3c2)CC1 [Example 53, 4-[6-(4-Methylpiperazin-1-ylmethyl)-1H-benzimidazol-2-yl]-6-phenyl-2H-pyridazin-3-one]
3 |  | 305 °C |  | CCCCNc1nccc(-c2cc(-c3nc4ccc(Cl)cc4[nH]3)c(=O)[nH]n2)n1 [Example 26, 6-(2-Butylaminopyrimidin-4-yl)-4-(6-chloro-1H-benzimidazol-2-yl)-2H-pyridazin-3-one]
4 | 50 |  |  | O=c1[nH]nc(-c2ccnc(NC3CC3)n2)cc1-c1nc2ccccc2[nH]1 [Example 58, 4-(1H-Benzimidazol-2-yl)-6-(2-cyclopropylaminopyrimidin-4-yl)-2H-pyridazin-3-one]
5 |  | > 300 °C (dec.) |  | Cc1cc(-c2nc3cc(Cl)ccc3[nH]2)c(=O)[nH]n1 [Example 11, 4-(5-Chloro-1H-benzimidazol-2-yl)-6-methyl-2H-pyridazin-3-one]
6 | 57 | > 350 °C (dec.) |  | N#Cc1ccc2[nH]c(-c3cc(-c4ccncc4)n[nH]c3=O)nc2c1 [Example 21, 4-(5-Cyano-1H-benzimidazol-2-yl)-6-pyridin-4-yl-2H-pyridazin-3-one]
7 |  | > 300 °C (dec.) |  | O=C(NCCCO)c1ccc2nc(-c3cc(-c4ccncc4)n[nH]c3=O)[nH]c2c1 [Example 10, 2-(3-Oxo-6-pyridin-4-yl-2,3-dihydropyridazin-4-yl)-1H-benzimidazole-5-carboxylic acid (3-hydroxypropyl)amide]
8 |  | 288 °C |  | CCCCNc1nccc(-c2cc(-c3nc4ccc(C(F)(F)F)cc4[nH]3)c(=O)[nH]n2)n1 [Example 27, 6-(2-Butylaminopyrimidin-4-yl)-4-(6-tri-fluoromethyl-1H-benzimidazol-2-yl)-2H-pyridazin-3-one]
9 | 7 |  |  | CN1CCN(Cc2ccc3nc(-c4cc(-c5ccncc5)n[nH]c4=O)[nH]c3c2)CC1 [Example 42, 4-[6-(4-Methylpiperazin-1-ylmethyl)-1H-benzimidazol-2-yl]-6-pyridin-4-yl-2H-pyridazin-3-one]
10 |  | > 350 °C (dec.) |  | O=c1[nH]nc(-c2ccncc2)cc1-c1nc2ccc(Br)cc2[nH]1 [Example 22, 4-(5-Bromo-1H-benzimidazol-2-yl)-6-pyridin-4-yl-2H-pyridazin-3-one]
11 | 56 |  |  | Cc1cc(-c2cc(-c3nc4ccc(C(F)(F)F)cc4[nH]3)c(=O)[nH]n2)cc(C)c1O [Example 25, 6-(4-Hydroxy-3,5-dimethylphenyl)-4-(6-tri-fluoromethyl-1H-benzimidazol-2-yl)-2H-pyridazin-3-one]
12 |  | > 350 °C (dec.) |  | Cc1cccc2nc(-c3cc(-c4ccncc4)n[nH]c3=O)[nH]c12 [Example 17, 4-(7-Methyl-1H-benzimidazol-2-yl)-6-pyridin-4-yl-2H-pyridazin-3-one]
13 | 63 |  |  | O=c1[nH]nc(-n2ccnc2)cc1-c1nc2ccccc2[nH]1 [Example 68, 4-(1H-Benzimidazol-2-yl)-6-imidazol-1-yl-2H-pyridazin-3-one]
14 |  | > 300 °C (dec.) |  | CNc1nccc(-c2cc(-c3nc4cc(Cl)ccc4[nH]3)c(=O)[nH]n2)n1 [Example 14, 4-(5-Chloro-1H-benzimidazol-2-yl)-6-(2-methylaminopyrimidin-4-yl)-2H-pyridazin-3-one]
15 |  | > 300 °C |  | CN1CCN(CCCNC(=O)c2ccc3nc(-c4cc(-c5ccncc5)n[nH]c4=O)[nH]c3c2)CC1 [Example 9, 2-(3-Oxo-6-pyridin-4-yl-2,3-dihydropyridazin-4-yl)-1H-benzimidazole-5-carboxylic acid [3-(4-methylpiperazin-1-yl)propyl]amide]
16 |  |  | 157 | Cn1cc(-c2cc(-c3nc4ccccc4[nH]3)c(=O)[nH]n2)ccc1=O [Example 50, 4-(1H-Benzimidazol-2-yl)-6-(1-methyl-6-oxo-1,6-dihydropyridin-3-yl)-2H-pyridazin-3-one]
17 |  | > 350 °C (dec.) |  | O=c1[nH]nc(-c2ccncc2)cc1-c1nc2ccccc2[nH]1 [Example 28, 4-(1H-Benzimidazol-2-yl)-6-pyridin-4-yl-2H-pyridazin-3-one]
18 |  | > 300 °C (dec.) |  | COc1ccc2nc(-c3cc(-c4ccncc4)n[nH]c3=O)[nH]c2c1 [Example 7, 4-(6-Methoxy-1H-benzimidazol-2-yl)-6-pyridin-4-yl-2H-pyridazin-3-one]
19 |  | > 300 °C (dec.) |  | O=c1[nH]nc(-c2ccncc2)cc1-c1nc2cc(Cl)ccc2[nH]1 [Example 5, 4-(6-Chloro-1H-benzimidazol-2-yl)-6-pyridin-4-yl-2H-pyridazin-3-one]
20 |  | > 350 °C (dec.) |  | O=c1[nH]nc(-c2ccncc2)cc1-c1nc2cc(F)ccc2[nH]1 [Example 20, 4-(5-Fluoro-1H-benzimidazol-2-yl)-6-pyridin-4-yl-2H-pyridazin-3-one]
21 |  | > 350 °C (dec.) |  | Cc1cc2nc(-c3cc(-c4ccncc4)n[nH]c3=O)[nH]c2cc1C [Example 18, 4-(5,6-Dimethyl-1H-benzimidazol-2-yl)-6-pyridin-4-yl-2H-pyridazin-3-one]
22 |  | 271 °C |  | O=C(NCCNC1CCCCC1)c1ccc2nc(-c3cc(-c4ccncc4)n[nH]c3=O)[nH]c2c1 [Example 8, 2-(3-Oxo-6-pyridin-4-yl-2,3-dihydropyridazin-4-yl)-1H-benzimidazole-5-carboxylic acid (2-cyclohexylaminoethyl)amide]
23 |  | > 350 °C (dec.) |  | CN1CCN(c2ccc3[nH]c(-c4cc(-c5ccncc5)n[nH]c4=O)nc3c2)CC1 [Example 19, 4-[5-(4-Methylpiperazin-1-yl)-1H-benzimidazol-2-yl]-6-pyridin-4-yl-2H-pyridazin-3-one]
24 | 28 |  |  | O=c1[nH]nc(-c2ccsc2)cc1-c1nc2ccccc2[nH]1 [Example 46, 4-(1H-Benzimidazol-2-yl)-6-thiophen-3-yl-2H-pyridazin-3-one]
25 | 16 | > 300 °C (dec.) |  | O=c1[nH]nc(-c2ccncc2)cc1-c1nc2cc(C(F)(F)F)ccc2[nH]1 [Example 6, 4-(6-Tri-fluoromethyl-1H-benzimidazol-2-yl)-6-pyridin-4-yl-2H-pyridazin-3-one]
